{
  "source": "patent US20220324809A1",
  "about": "“ATP-REGULATED POTASSIUM CHANNEL OPENERS AND USES THEREOF” (SALZMAN GROUP LTD., priority 2019, published 2022)",
  "type_in_all_cases": "in vivo, Sprague-Dawley rats",
  "key": {"MCT-induced PH [1]": {"test_system": "MCT-induced PH", "test": "Prophylactic daily IP R-1703 in rat model of MCT-induced PH", "conditions": "50 micrograms per kg IP daily, measured 28 days post-MCT, p<0.001, FIG. 4", "method": "Sprague-Dawley rats (n=3 per group) were treated with a single SC injection of MCT with 60 mg/kg or an equivalent volume of saline (2 mL/kg). Rats were then treated daily with 50 micrograms per kg of R-1703 by an intraperitoneal (IP) route of administration. After a post-MCT period of 28 days wherein vehicle control treated rats develop severe and stable PH, rats were anesthetized and endotracheally intubated."}, "MCT-induced PH [2]": {"test_system": "MCT-induced PH", "test": "Single IV administration of R-1703 in rat treatment model of MCT-induced PH (acute and sustained effect)", "text": "An established rat model for PH utilizes monocrotaline (MCT), a toxin derived from plants of the Crotalaria species, which causes pulmonary arterial endothelial cell injury and subsequent pulmonary artery smooth muscle hypertrophy. This model serves as a tool for assessing an immediate vasorelaxation effect by monitoring real-time right ventricular pressure in rats with PAH (late intervention regimen), as well as assessment of efficacy in a prevention of vascular remodeling progression (early intervention regimen). In the latter mode, weight ratios of left and right ventricles and histopathological assessment of right ventricular hypertrophy are used to evaluate the extent of fibrosis. R-1703 is effective in acutely treating a rodent model of MCT-induced PH. Sprague-Dawley rats (n=3 per group) were treated with a single subcutaneous (SC) injection of MCT with 60 mg/kg or an equivalent volume of saline (2 mL/kg). After a post-MCT period of 28 days wherein rats developed severe and stable PH, rats were anesthetized and endotracheally intubated, followed by a single intravenous (IV) administration of R-1703 (15, 30, 60, and 90 μg/kg, in PBS) via the tail vein. Vehicle controls received an equivalent volume of PBS. MCT induced a large increase in MPAP (from 25 to 50 mmHg). […] The experiments shown below have been repeated three times and are reproducible."}, "MCT-induced PH [3]": {"test_system": "MCT-induced PH", "test": "Intratracheal aerosolized R-1703 in rat treatment model of MCT-induced PH: sustained effect", "method": "(§1) Intratracheal aerosolized R-1703 is effective in a rodent treatment model of MCT-induced PH: Sustained effect. 28 days after injection of MCT (60 mg/kg SC) and development of severe and stable PH, mechanically ventilated and anaesthetized Sprague-Dawley rats were dosed IT with aerosolized solution (2.0 mL) delivering 0.6, 6.0, or 30 micrograms per kg of R-1703 in PBS. Vehicle controls received an equivalent volume of PBS. MCT induced a large increase in MPAP."}, "MCT-induced PH [4]": {"test_system": "MCT-induced PH", "test": "Intratracheal aerosolized R-1703 in rat treatment model of MCT-induced PH: acute effect", "method": "as §1, with “Intratracheal (IT)” for “Intratracheal”, “Acute” for “Sustained”, “containing 500” for “delivering 0.6, 6.0,”, “5000 ng/mL” for “30 micrograms per kg”"}, "[5]": {"conditions": "IT aerosol 0.6, 6.0 or 30 micrograms per kg"}},
  "data": [
    {"smiles": "CCC(C)(C)N/C(=N\\C#N)Nc1cncc(C(=O)NCCO)c1", "note": "[R-1703]", "values": [
      {"measurement": "restoration of normal pressures (MPAP)", "setting": "MCT-induced PH [1]", "result": 80, "unit": "%"},
      {"measurement": "effect on heart rate", "setting": "MCT-induced PH [2]; IV 15-90 μg/kg", "result": "no effect"},
      {"measurement": "effect on peripheral blood pressure", "setting": "MCT-induced PH [2]; IV 15-90 μg/kg", "result": "no effect"},
      {"measurement": "persistence of effect on MPAP post dose", "setting": "MCT-induced PH [2]; IV, FIG. 1B", "result": "at least 24 h"},
      {"measurement": "persistence of effect on MPAP after administration", "setting": "MCT-induced PH [2]; IV, FIG. 1B legend", "result": "at least 24 hours"},
      {"measurement": "effect on MCT-induced elevation in MPAP", "setting": "MCT-induced PH [2]; single IV 15, 30, 60, 90 μg/kg in PBS, 28 days post-MCT", "result": "dose-dependently reduced the MCT-induced elevation in MPAP"},
      {"measurement": "restoration of normal pressures (MPAP)", "setting": "MCT-induced PH [2]; single IV dose 90 μg/kg, 28 days post-MCT, p<0.000005, FIG. 1A", "result": 100, "unit": "%"},
      {"measurement": "effect on heart rate", "setting": "MCT-induced PH [3]; [5]", "result": "no effect"},
      {"measurement": "effect on peripheral blood pressure", "setting": "MCT-induced PH [3]; [5]", "result": "no effect"},
      {"measurement": "effect on MCT-induced elevation in MPAP", "setting": "MCT-induced PH [3]; IT aerosol delivering 0.6, 6.0 or 30 micrograms per kg, sustained effect, p<0.001, FIG. 3", "result": "dose-dependently reduced the MCT-induced elevation in MPAP"},
      {"measurement": "effect on heart rate", "setting": "MCT-induced PH [4]; IT aerosol 500 or 5000 ng/mL", "result": "no effect"},
      {"measurement": "effect on peripheral blood pressure", "setting": "MCT-induced PH [4]; IT aerosol 500 or 5000 ng/mL", "result": "no effect"},
      {"measurement": "effect on MCT-induced elevation in MPAP", "setting": "MCT-induced PH [4]; IT aerosolized solution 2.0 mL, 500 or 5000 ng/mL, acute effect, p<0.001, FIG. 2", "result": "dose-dependently reduced the MCT-induced elevation in MPAP"}
    ]}
  ]
}
